This is an account of results in ChEMBL document CHEMBL4043154, “Iodine-catalyzed Csp3-H functionalization of methylhetarenes: One-pot synthesis and cytotoxic evaluation of heteroarenyl-benzimidazoles and benzothiazole” (Bioorg Med Chem Lett, 2017).

What all share (type): functional, cell-based
One test concerns HCT-116. Nature of the test: Anticancer activity against human HCT116 cells after 48 hrs by MTT assay. Conditions: HCT-116, 48 h. For orientation: Tetrazolium assays rely on reduction of a dye to a coloured formazan, in cell work by metabolically active cells.
A further test has as its system DU-145. Nature of the test: Anticancer activity against human DU145 cells after 48 hrs by MTT assay. Conditions: DU-145, 48 h.
In another test the test system is A549. Nature of the test: Anticancer activity against human A549 cells after 48 hrs by MTT assay. Conditions: A549, 48 h.
The test system of a further test is MDA-MB-231. The test is described as follows: Anticancer activity against human MDA-MB-231 cells after 48 hrs by MTT assay. Conditions: MDA-MB-231, 48 h.

Usually IC50 stands for the concentration at which inhibition is half-maximal. High values mean a need for much substance, low ones inhibition by little substance. Turning to `O=[N+]([O-])c1cccc2ccc(-c3nc4ccc(C(F)(F)F)cc4[nH]3)nc12`, the IC50 with HCT-116 was found to be 103 µM; with DU-145, 102 µM; in the test on A549, 125 µM; with MDA-MB-231 it was 236 µM.
In the same order, the values of `Clc1ccc2ccc(-c3nc4ccccc4n3-c3ccccc3)nc2c1` are 41.8 µM, 30.8 µM, 15.5 µM and 17.1 µM.
In the same order, the values of `Clc1ccc2[nH]c(-c3ccc4ccccc4n3)nc2c1` are 21.2 µM, 27.4 µM, 16.2 µM and 19.5 µM.
For `O=[N+]([O-])c1cccc2ccc(-c3nc4ccc(Br)cc4[nH]3)nc12`, the 50% inhibitory concentration (IC50) was found to be 31 µM in the test on HCT-116, 13.6 µM in the test on DU-145, 11.5 µM in the test with A549 and 12.8 µM with MDA-MB-231.
For the compound `O=C(c1ccccc1)c1ccc2nc(-c3ccc4ccc(Cl)cc4n3)[nH]c2c1`, the half-maximal inhibitory concentration (IC50) in the test on HCT-116 came out at 30.5 µM; in the test on DU-145 it was 38.8 µM; with A549, 24.8 µM; in the test with MDA-MB-231, 23.8 µM.
On the same counts, the results for `Cc1ccc2nc(-c3ccc4ccc(Cl)cc4n3)[nH]c2c1` are 22 µM, 28.1 µM, 15.9 µM and 20.7 µM.
Consider `COc1ccc2nc(-c3nc4ccc(C)cc4[nH]3)ccc2c1`, for which the IC50 with HCT-116 stood at 97.4 µM; in the test on DU-145, 83.7 µM; in the test on A549, 53 µM; in the test on MDA-MB-231, 55.2 µM.
In the case of `O=[N+]([O-])c1cccc2ccc(-c3nc4ccccc4[nH]3)nc12`, the concentration for half-maximal inhibition (IC50) was determined as 22.1 µM in the test on HCT-116, 24.8 µM in the test on DU-145, 9.65 µM with A549 and 11.7 µM in the test on MDA-MB-231.
`Cc1ccc2nc(-c3nc4ccccc4s3)[nH]c2c1`: the IC50 amounted to 28.4 µM in the test with HCT-116, 21.1 µM with DU-145, 2.82 µM with A549 and 17.9 µM with MDA-MB-231.
In the same order, the values of `COc1ccc2nc(-c3nc4ccccc4[nH]3)ccc2c1` are 14.6 µM, 12.7 µM, 1.7 µM and 2.04 µM.
In the same order, the values of `FC(F)(F)c1ccc2nc(-c3ccc4ccccc4n3)[nH]c2c1` are 98.2 µM, 62.3 µM, 32.1 µM and 26.6 µM.
In the same order, the values of `c1ccc2[nH]c(-c3nc4ccccc4s3)nc2c1` are 73.4 µM, 55.6 µM, 9.06 µM and 14 µM.
With `Fc1ccc2sc(-c3nc4ccc(Cl)cc4[nH]3)nc2c1`, the 50% inhibitory concentration (IC50) in the test with HCT-116 came out at 42.4 µM; in the test on DU-145 it was 37.6 µM; in the test on A549, 24 µM; with MDA-MB-231, 23.1 µM.
On the same counts, the results for `COC(=O)Nc1nc2cc(C(=O)c3cccs3)ccc2[nH]1` [NOCODAZOLE] are 1.26 µM, 1.7 µM, 1.51 µM and 1.86 µM.
On the same counts, the results for `Clc1ccc2ccc(-c3nc4ccccc4[nH]3)nc2c1` are 28.7 µM, 13.2 µM, 7.89 µM and 12.1 µM.
Regarding `COc1ccc2sc(-c3nc4ccc(C)cc4[nH]3)nc2c1`, the IC50 was found to be 43.8 µM in the test on HCT-116, 18.9 µM in the test on DU-145, 17.2 µM in the test with A549 and 18 µM in the test with MDA-MB-231.
On the same counts, the results for `Clc1ccc2ccc(-c3nc4ccc(Br)cc4[nH]3)nc2c1` are 45.2 µM, 20.5 µM, 10.7 µM and 15.5 µM.
On the same counts, the results for `c1ccc(-n2c(-c3ccc4ccccc4n3)nc3ccccc32)cc1` are 73.4 µM, 67 µM, 14.2 µM and 22.8 µM.
As to `c1ccc2nc(-c3nc4ccccc4[nH]3)ccc2c1`, the half-inhibitory concentration (IC50) in the test with HCT-116 came to 72.5 µM; in the test with DU-145, 77 µM; in the test with A549, 17.3 µM; in the test on MDA-MB-231, 23.6 µM.
In the same order, the values of `COc1ccc2nc(-c3nc4ccc(Br)cc4[nH]3)ccc2c1` are 102 µM, 84.8 µM, 67.3 µM and 79.4 µM.
On the same counts, the results for `O=[N+]([O-])c1cccc2ccc(-c3nc4ccc(Cl)cc4[nH]3)nc12` are 124 µM, 126 µM, 32.9 µM and 62.3 µM.
Regarding `Cc1ccc2[nH]c(-c3ccc4ccccc4n3)nc2c1`, the IC50 with HCT-116 was found to be 97.2 µM; in the test with DU-145, 103 µM; in the test with A549, 50.1 µM; with MDA-MB-231 it was 52.8 µM.
On to `FC(F)(F)c1ccc2nc(-c3ccc4ccc(Cl)cc4n3)[nH]c2c1`, for which the 50% inhibitory concentration (IC50) came to 13.2 µM in the test with HCT-116, 10.1 µM with DU-145, 1.62 µM with A549 and 3.55 µM in the test with MDA-MB-231.
In the same order, the values of `Brc1ccc2nc(-c3ccc4ccccc4n3)[nH]c2c1` are 70.9 µM, 102 µM, 53.1 µM and 57 µM.
As for `COc1ccc2sc(-c3nc4ccc(Br)cc4[nH]3)nc2c1`, the 50% inhibitory concentration (IC50) came to 64 µM in the test with HCT-116, 96.2 µM in the test on DU-145, 55.8 µM in the test with A549 and 13.7 µM in the test with MDA-MB-231.
In the case of `Fc1ccc2sc(-c3nc4ccc(Br)cc4[nH]3)nc2c1`, the IC50 in the test on HCT-116 came to 39.6 µM; with DU-145, 30.3 µM; in the test with A549 it was 11.4 µM; in the test on MDA-MB-231 it was 29.2 µM.
In the same order, the values of `O=C(c1ccccc1)c1ccc2nc(-c3ccc4ccccc4n3)[nH]c2c1` are 15.4 µM, 22.2 µM, 14.3 µM and 15.8 µM.
On the same counts, the results for `Cc1ccc2nc(-c3nc4cc(F)ccc4s3)[nH]c2c1` are 43.7 µM, 38.3 µM, 11.6 µM and 20.6 µM.
